In ChEMBL document CHEMBL3832540, “DailyMed|setid=3ce9ee32-b18b-4ef3-b127-ce479d520e1a | BRILINTA- ticagrelor tablet|Bryant Ranch Prepack”:

Key:
[1] = (§1) Evaluation of pharmacokinetic parameters for Ticagrelor following oral administration of Ticagrelor tablets (BRILINTA); format: ADME, organism-based; details: human, in vivo, dosed compound id 12, dosed compound name TICAGRELOR, tissue Plasma
Homo sapiens = experiment: as §1; format: ADME, organism-based; details: in vivo, po, dosed compound id 12, dosed compound name TICAGRELOR, tissue Plasma

CCCSc1nc(N[C@@H]2C[C@H]2c2ccc(F)c(F)c2)c2nnn([C@@H]3C[C@H](OCCO)[C@@H](O)[C@H]3O)c2n1 [TICAGRELOR]
Tmax [1]: 1.5 h | bioavailability [1]: 36% | half-life [1]: 7 h | Protein bound (Homo sapiens): 99% | Vd (Homo sapiens): 88 L
